Reference: US10034913B2, “Anti-angiogenic peptides and uses thereof” (Health Research, Inc., priority 2011, dated 2018)
Bridges are numbered along the chain shown (N, C = ends). Where no end group is shown, it is not given here.

Legend:
[1] = system: FAK gene expression in HUVEC; experiment: FAK gene expression in HUVEC, Real-time QPCR; format: cell-based, human; conditions: 10 uM, average of three experiments
Description: FIG. 16 is a graphical representation of data showing modulation of FAK gene expression in HUVEC by f-PSA and PSA-P3L. To produce the results summarized in FIG. 16, nearly confluent monolayers of HUVEC were treated with 10 uM of f-PSA or PSA-P3L; RNA extracted and reverse transcribed. The c-DNA was amplified by Real-time QPCR using specific primers. The results shown are the average of three experiments. […] The other experimental details are similar to all gene expression studies. Thus, in one embodiment, the invention provides a method for inhibiting FAK gene expression in human endothelial cells comprising contacting the cells with one or more peptides of the invention.

[2] = system: VEGF gene expression in HUVEC; experiment: VEGF gene expression in HUVEC, Real-time QPCR; format: cell-based, human; conditions: 10 uM, average of three experiments
Description: FIG. 17 is a graphical representation of data showing modulation of VEGF gene expression in HUVEC by f-PSA, PSA-P3L and PSA-P3C. To produce the results summarized in FIG. 17, nearly confluent monolayers of HUVEC were treated with 10 uM of f-PSA or PSA-P3L; RNA extracted and reverse transcribed. The c-DNA was amplified by Real-time QPCR using specific primers. The results shown are average of three experiments. […] The data represents an average of three experiments. […] Thus, in one embodiment, the invention provides a method for inhibiting VEGF expression in human endothelial cells comprising contacting the cells with one or more peptides of the invention.

[3] = system: ANG2 gene expression in HUVEC; experiment: ANG2 gene expression in HUVEC, Real-time QPCR; format: cell-based, human; conditions: 10 uM, average of three experiments
Description: FIG. 18 is a graphical representation of data showing modulation of ANG2 gene expression in HUVEC by f-PSA, PSA-P31 and PSA-P3C. To produce the results summarized in FIG. 18, nearly confluent monolayers of HUVEC were treated with 10 uM of f-PSA, PSA-P3L or PSA-P3C; RNA extracted and reverse transcribed. The c-DNA was amplified by Real-time QPCR using specific primer. The results shown are an average of three experiments. […] Accordingly, in one embodiment, the invention provides a method for inhibiting ANG2 expression in human endothelial cells comprising contacting the cells with one or more peptides of the invention.

[4] = system: HUVEC; experiment: Matrigel endothelial tube formation assay; format: cell-based, human; conditions: for anti-angiogenic activity, inhibition of tube formation by HUVEC in Matrigel: 10 uM, 18 hr, FIGS. 14, 19, 20; for reproducible anti-angiogenic activity: tested at 10 and 100 μM; for inhibitory activity on endothelial tube formation: equi-molar concentrations of f-PSA and T-PSA
Description: The 3-D model of human PSA, the amino acid sequence of the initial five candidate peptides, and their color-coded location on the exterior of the PSA protein molecule in aqueous solution, are presented in FIG. 8. Five PSA-mimetic peptides with >90% purity were acquired from GeneScript Corporation, Piscataway, N.J., and tested for anti-angiogenic activity against HUVECs in the Matrigel tube formation assay with intact PSA as the control (FIGS. 9 &10). Briefly, to perform these assays, 10^4 HUVEC cells are mixed with the PSA mimetic peptide, and, the mixture placed on top of a solidified, pre-poured Matrigel layer in a flat bottomed well of a multi-chambered plate, and the culture incubated for 16-18 hr to allow time for the endothelial cells to migrate and form tubular structures. At the conclusion of the incubation, digital images were made from the center of each culture to avoid bias, and 3-4 wells for each test condition were imaged. The images are processed under the Analyze 7.0 and “Angioquant” software packages, for imaging and quantification. The total length of tubular structures in the image is determined, and averaged over the replicate cultures. This method of quantification allows for accurate, unbiased measurement of tube lengths. Peptides having each of the peptide sequences shown in FIG. 8 are encompassed within the scope of the invention, including all modifications and substitutions to the sequences as described supra.
The experimental endpoint, measured by digital image analysis, is the total area of the image comprised of endothelial cells (tubes). […] While the reason for the decrease in the amount of anti-angiogenic activity in this figure when the concentration of the peptides is increased from 10 to 100 μM is not clear, it may be related to a dosing response observed in this case. […] FIG. 10 presents the evaluation of anti-angiogenic activity for peptides #1 and #3 relative to the level of inhibition by native PSA, averaged over multiple experiments with different parental populations of HUVEC cells. Across multiple sets of experiments, both peptides inhibited the angiogenic activity of HUVEC by 35-40% relative to native PSA.
FIG. 13 is a graphical representation of data showing anti-angiogenic activity of f-PSA, PSA-P3L, and PSA-P3C by inhibiting tube formation by HUVEC in a Matrigel assay. To produce the results summarized in FIG. 13, a 24-well tissue culture plate was coated with 200 ul/well of Matrigel and incubated for 30 min at 37 C. Approximately 80,000 HUVEC in 0.5 ml of media supplemented with f-PSA or PSA-P3L, PSA-P3C was applied on top of the Matrigel layer and cells were incubated for 18 hr at 37 C foe endothelial cell tube formation. Live cell images (4× magnification) were taken using Nikon Eclipse TE300 inverted microscope system and analyzed using Spot Advance software program. Five images were taken/well. The images were processed further using Analyze 7.0 (AnalyzeDirect, Inc., Overland Park, Kans.) and Angioquant v1.33 to obtain the average tube length for each image. Percent inhibition is expressed in relation to tube length in untreated control cells.

[5] = system: FLT1 gene expression in HUVEC; experiment: FLT1 gene expression in HUVEC, Real-time QPCR; format: cell-based, human; conditions: 10 uM, average of three experiments
Description: FIG. 15 is a graphical representation of data showing modulation of FLT1 gene expression in HUVEC by f-PSA and PSA-P31. […] To obtain the data summarized in this figure, nearly confluent monolayers of HUVEC were treated with 10 uM of f-PSA or PSA-P3L; RNA extracted and reverse transcribed. The c-DNA was amplified by Real-time QPCR using specific primer. The results shown are average of three experiments.

[6] = system: HUVEC cells; experiment: Expression of angiogenesis/vasculogenesis genes in HUVEC, enzymatically active vs inactive PSA; format: cell-based, human
Description: (§1) Enzymatically active PSA, and PSA inactivated by incubation with Zinc^2+ [activity inhibited>75% by 5.0 μM of Zinc, inset FIG. 4] were compared for their respective effects on expression of genes involved in angiogenesis/vasculogenesis in HUVEC cells.

[7] = target: T1, PSA (Homo sapiens, UniProt P07288); experiment: Inhibition of PSA enzymatic activity by zinc; format: biochemical
T1 construct: The 237 amino acid protein (25-261) were used in the studies that include PSA as described herein; from tissue; host or cells: human seminal plasma (f-PSA); human prostate cancer tissue specimens (T-PSA)
T1 sequence (P07288 25-261): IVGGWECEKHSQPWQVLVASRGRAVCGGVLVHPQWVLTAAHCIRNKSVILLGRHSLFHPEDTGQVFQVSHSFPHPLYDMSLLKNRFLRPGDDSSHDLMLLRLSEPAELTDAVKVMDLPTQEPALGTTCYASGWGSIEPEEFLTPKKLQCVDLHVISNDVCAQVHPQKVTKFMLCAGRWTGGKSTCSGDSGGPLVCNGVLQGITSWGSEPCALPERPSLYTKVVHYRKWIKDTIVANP
Description: (§2) Hydrolysis of the fluorogenic substrate was quantitated using a LS-45 Luminescence Spectrometer from Perkin Elmer) using the FL-Winlab® program. Human prostate cancer tissue specimens were obtained from the Pathology Resource Network at Roswell Park Cancer Institute under an IRB approved protocol.
as §1

[8] = target: T2, Mu-His-Ser-Ser-Lys-Leu-Gln—AFC (Homo sapiens, UniProt P07288); experiment: Enzymatic activity of isolated PSA, hydrolysis of fluorogenic substrate; format: biochemical; conditions: for enzymatic activity in the assay: fluorogenic substrate hydrolysis
T2 construct: The 237 amino acid protein (25-261) were used in the studies that include PSA as described herein; from tissue; host or cells: human seminal plasma (f-PSA); human prostate cancer tissue specimens (T-PSA)
T2 sequence (P07288 25-261): as above
Description: In particular, enzymatic activity of PSA isolated from human seminal plasma (f-PSA) and from human prostate cancer tissue specimens (Tissue-PSA: T-PSA) was evaluated routinely using a substrate (Mu-His-Ser-Ser-Lys-Leu-Gln—AFC) (SEQ ID NO:102) (Calbiochem) that is highly specific for PSA. […] PSA in the tissue microenvironment (T-PSA) is largely free and enzymatically active. T-PSA levels are lower in advanced prostate cancer than benign prostate, and T-PSA levels correlate with prognosis in prostate cancer, as well as in breast cancer; the higher the T-PSA level, the better the prognosis.
as §2

[9] = system: PC-3M cells; experiment: Gene expression array and QPCR analysis of PC-3M cells treated with PSA; format: cell-based, human
Description: (§3) PSA purified to homogeneity from human seminal plasma is enzymatically active, and free of contaminating hk2, and complexes with carrier proteins/chaperones (Bindukumar, B., et al., J Chromatogr B Analyt Technol Biomed Life Sci, 2004. 813(1-2): p. 113-20).

[10] = system: PC-3M xenografts; experiment: Growth of PC-3M xenografts in nude mice; format: in vivo; conditions: PSA administered in the tumor vicinity; control animals 267 mm^3
Description: as §3

[11] = system: PC-3M cells; experiment: Proteomic profiling (2D-DIGE, HPLC-MS/MS) of PC-3M cells treated with PSA; format: cell-based, human; conditions: PSA treatment
Description: This Example provides an illustration of proteomic profiling of the effect of PSA on human prostate cancer cells. In this regard, a proteomic approach was employed to identify proteins whose expression was modulated in PC-3M cells treated with PSA. […] Proteins from 26 gel spots were identified [FIG. 2]. […] Specificity of PSA modulation of differential expression of these genes in PC-3M cells was validated at the gene level by RT-QPCR [FIG. 3].

[12] = system: PC-3M cells; conditions: cited from earlier work
[13] = PC-3M cells versus LNCaP cells treated with 10 μM PSA

## Asn Asp Val Cys Ala Gln Val His Pro Gln Lys Val Thr Lys Phe Met Leu Cys Ala (Ac-NDVCAQVHPQKVTKFMLCA-NH2; disulfide 4-18 (inferred)) [PSA-P3C]
[1]
  FAK gene expression: significantly down-regulates
[2]
  VEGF gene expression: significantly down-regulate
[3]
  ANG2 gene expression: significantly inhibited
[4]; at certain concentrations, FIG. 11
  inhibition of HUVEC tube formation, cyclic versus linear peptide: even more efficiently than linear peptide

## NDVAAQVHPQKVTKFMLAA [PSA-P3L]
[5]
  FLT1 gene expression: effectively inhibit
[1]
  FAK gene expression: not significantly different
[2]
  VEGF gene expression: not significantly different from control
[3]
  ANG2 gene expression: not significantly different from control
[4]
  anti-angiogenic activity, inhibition of tube formation by HUVEC in Matrigel: significantly inhibit

## GRWTGGKSTCS [Peptide #4]
[4]
  reproducible anti-angiogenic activity: did not demonstrate reproducible anti-angiogenic activity

## KNRFLRPGDDSSH [Peptide #1, amino acids 107-119 of PSA]
[4]
  anti-angiogenic activity, inhibition of tube formation by HUVEC in Matrigel: significantly inhibit
[4]; 100 μM, FIG. 9
  inhibition of tubule formation: maximal inhibition

## PSA inactivated by incubation with Zinc^2+: PSA enzymatically inactivated by incubation with Zinc2+ (5.0 μM)
[6]
  expression of blood vessel development genes FAK, FLT, KDR, TWIST1, Cathepsin D and P-38: equally effective
  negative modulation of expression of pro-angiogenic growth factors bFGF and VEGF: equally effective
  positive modulation of expression of IFN-γ: equally effective
[4]; over the entire range of PSA concentrations studied
  inhibition of tube formation compared with native PSA: as inhibitory of tube formation as was native PSA

## [Cl-].[Cl-].[Zn+2] [zinc chloride]
[7]; 5.0 μM of Zinc
  PSA activity inhibited: > 75%
[7]; pre-incubation with zinc chloride 5 μM
  inhibition of enzymatic activity of f-PSA and T-PSA: inhibited completely

## GWGSIEPEEFLTPKKLQ [Peptide #2]
[4]
  reproducible anti-angiogenic activity: did not demonstrate reproducible anti-angiogenic activity

## T-PSA: PSA isolated from human prostate cancer tissue specimens
[8]
  enzymatic activity in the assay: demonstrated enzymatic activity
[8]; per microgram of protein
  enzymatic activity relative to f-PSA from seminal plasma: roughly 50%
[4]
  inhibitory activity on endothelial tube formation: equivalent inhibitory activity

## SEPCALPERPS [Peptide #5]
[4]
  reproducible anti-angiogenic activity: did not demonstrate reproducible anti-angiogenic activity

## f-PSA: PSA isolated from human seminal plasma, free and enzymatically active; 237 amino acid protein (residues 25-261)
[9]; [13]
  genes down-regulated (gene expression array): 137
  genes up-regulated (gene expression array): 136
[9]; PC-3M cells, 10 μM PSA
  expression of IFN-γ and interferon related genes incl. 2,5 oligo-adenylated synthetase-2 (QPCR): up-regulated
  expression of uPA, VEGF, cysteine-rich angiogenic inducer-61, EphA2, TGF-β2 (QPCR): significantly down-regulated
[10]
  mean tumor volume: 13 mm^3
[11]
  proteins significantly changed (p<0.05) in abundance: 41
[8]
  enzymatic activity in the assay: demonstrated enzymatic activity
[6]
  expression of blood vessel development genes FAK, FLT, KDR, TWIST1, Cathepsin D and P-38: equally effective
  negative modulation of expression of pro-angiogenic growth factors bFGF and VEGF: equally effective
  positive modulation of expression of IFN-γ: equally effective
[5]
  FLT1 gene expression: effectively inhibit
[1]
  FAK gene expression: significantly down-regulates
[2]
  VEGF gene expression: significantly down-regulate
[3]
  ANG2 gene expression: significantly inhibited
[4]
  anti-angiogenic activity, inhibition of tube formation by HUVEC in Matrigel: significant anti-angiogenic activity
  inhibitory activity on endothelial tube formation: equivalent inhibitory activity
[4]; listed as PSA
  anti-angiogenic activity, inhibition of tube formation by HUVEC in Matrigel: significantly inhibit
[12]
  effect on VEGF and IFN-γ gene expression and protein release: distinctly dose dependent

## PSA-ACT Complex: f-PSA complexed with serine protease inhibitor alpha 1 anti-chymotrypsin (ACT)
[4]
  anti-angiogenic activity, inhibition of tube formation by HUVEC in Matrigel: significant loss of anti-angiogenic activity
[4]; listed as PSA-ACT complexes
  anti-angiogenic activity, inhibition of tube formation by HUVEC in Matrigel: significantly reduced
